Values quoted from earlier work, collected in patent US20200147085A1, “COMPOSITIONS AND METHODS FOR TREATMENT OF PSYCHIATRIC DISORDERS” (priority 2007, published 2020).

Columns and labels:
[1] = rats, intraperitoneal
schizophrenic patients = details: 10-20 grams/day
[2] = test system: chronic renal failure patients; details: 4 grams daily, with 5 mg folate and 50 mg pyridoxine daily; not fasting levels
[3] = parenterally administered SAM
healthy volunteers = details: daily iv infusion for 7 days; not supine
[4] = healthy controls, single oral dose of 400 mg of SAM

Question: For `CSCC[C@H](N)C(=O)O` [methionine, L-methionine], which SAM in brain [1] is on record?
Answer: about 130 % of controls

Question: What about the “schizophrenic patients with worsened psychosis” value (schizophrenic patients) of the same compound?
Answer: about 40%

Question: Which “decrease of post-methionine loading homocysteine levels” value [2] does the source give for `C[N+](C)(C)CC(=O)[O-]` [betaine, trimethylglycine] here?
Answer: 18%

Question: Which results are given for `C[S+](CC[C@H](N)C(=O)O)C[C@H]1O[C@@H](n2cnc3c(N)ncnc32)[C@H](O)[C@@H]1O` (stereo partly drawn) [SAM, S-adenosylmethionine]?
Answer: SAM levels in cerebral spinal fluid [3]: about 130 % of controls; decrease in standing heart rate (healthy volunteers): 6 beats/minute; half-life of SAM [4]: 1.7 ± 0.3 h
